Tests used:
[1] = tested on: patients with fasting triglyceride levels >200 mg/dl and <500 mg/dl despite statin therapy; test: 12-week study: lipoprotein associated phospholipase A2 (Lp-PLA2); assay type: in vivo, human; settings: MITT; for Lp-PLA2 Percent change from Baseline Median (IQR): Week 12 endpoint; for Lp-PLA2 Difference from placebo Estimated median: percent change from baseline to Week 12 endpoint
Excerpt: (§1) Parameters (a)-(z) can be measured in accordance with any clinically acceptable methodology. For example, triglycerides, total cholesterol, HDL-C and fasting blood sugar can be sample from serum and analyzed using standard photometry techniques. VLDL-TG, LDL-C and VLDL-C can be calculated or determined using serum lipoprotein fractionation by preparative ultracentrifugation and subsequent quantitative analysis by refractometry or by analytic ultracentrifugal methodology. Apo A1, Apo B and hsCRP can be determined from serum using standard nephelometry techniques. Lipoprotein (a) can be determined from serum using standard turbidimetric immunoassay techniques. LDL particle number and particle size can be determined using nuclear magnetic resonance (NMR) spectrometry. Remnants lipoproteins and LDL-phospholipase A2 can be determined from EDTA plasma or serum and serum, respectively, using enzymatic immunoseparation techniques. Oxidized LDL, intercellular adhesion molecule-1 and interleukin-2 levels can be determined from serum using standard enzyme immunoassay techniques. These techniques are described in detail in standard textbooks, for example Tietz Fundamentals of Clinical Chemistry, 6th Ed. (Burtis, Ashwood and Borter Eds.), WB Saunders Company.
(§2) A multi-center, placebo-controlled, randomized, double-blind, 12-week study was performed to evaluate the efficacy and safety of >96% E-EPA in patients with fasting triglyceride levels >200 mg/dl and <500 mg/dl despite statin therapy (the mean of two qualifying entry values needed to be >185 mg/dl and at least one of the values needed to be >200 mg/dl). The primary objective of the study was to determine the efficacy of >96% E-EPA 2 g daily and 4 g daily, compared to placebo, in lowering fasting TG levels in patients with high risk for cardiovascular disease and with fasting TG levels 200 mg/dl and <500 mg/dl, despite treatment to LDL-C goal on statin therapy.
(§3) The secondary objectives of this study were the following: • 1. To determine the safety and tolerability of >96% E-EPA 2 g daily and 4 g daily; • 2. To determine the effect of >96% E-EPA on lipid and apolipoprotein profiles including total cholesterol (TC), non-high-density lipoprotein cholesterol (non-HDL-C), low density lipoprotein cholesterol (LDL-C), high density lipoprotein cholesterol (HDL-C), and […]; • 3. To determine the effect of >96% E-EPA on lipoprotein associated phospholipase A2 (Lp-PLA2) from baseline to week 12; • 4. To determine the effect of >96% E-EPA on low-density lipoprotein (LDL) particle number and size; • 5. To determine the effect of >96% E-EPA on oxidized LDL; • 6. To determine the effect of >96% E-EPA on fasting plasma glucose (FPG) and hemoglobin A1c (HbA1c); • 7. To determine the effect of >96% E-EPA on insulin resistance; • 8. To determine the effect of >96% E-EPA on high-sensitivity C-reactive protein (hsCRP); • 9. To determine the effects of >96% E-EPA 2 g daily and 4 g daily on the incorporation of fatty acids into red blood cell membranes and into plasma phospholipids; • 10. To explore the relationship between baseline fasting TG levels and the reduction in fasting TG levels; and • 11. To explore the relationship between changes of fatty acid concentrations in plasma and red blood cell membranes, and the reduction in fasting TG levels.
(§4) The primary efficacy variable for the double-blind treatment period was percent change in TG from baseline to Week 12 endpoint. […]

[2] = tested on: patients with fasting triglyceride levels >200 mg/dl and <500 mg/dl despite statin therapy; test: 12-week study: glucose metabolism (FPG, HbA1c, insulin, HOMA-IR); assay type: in vivo, human; settings: MITT; for Fasting plasma glucose Percent change from Baseline Median (IQR) / HOMA-IR Percent change from Baseline Median (IQR) / HbAlc Percent change from Baseline Median (IQR) / Insulin Percent change from Baseline Median (IQR): Week 12 EP; for Fasting plasma glucose Percent change from Baseline Median (IQR) / HOMA-IR Percent change from Baseline Median (IQR) / HbAlc Percent change from Baseline Median (IQR) / Insulin Percent change from Baseline Median (IQR) / Fasting plasma glucose Difference from placebo Estimated median / HOMA-IR Difference from placebo Estimated median / HbAlc Difference from placebo Estimated median / Insulin Difference from placebo Estimated median: ANCOVA; for Fasting plasma glucose Difference from placebo Estimated median / HOMA-IR Difference from placebo Estimated median / HbAlc Difference from placebo Estimated median / Insulin Difference from placebo Estimated median: change from baseline to Week 12 EP
Excerpt: as §1, §2, §3, §4

## CC/C=C\C/C=C\C/C=C\C/C=C\C/C=C\CCCC(=O)OCC [AMR101, ethyl eicosapentaenoate]
[1]; AMR101 2 g/d + statin
  Lp-PLA2 Week 12 EP Median (IQR): 183.5 (57.5) ng/mL
  Lp-PLA2 Percent change from Baseline Median (IQR): −1.8 (23.1) %
  Lp-PLA2 Difference from placebo Estimated median: −8.0%
[1]; AMR101 4 g/d + statin
  Lp-PLA2 Week 12 EP Median (IQR): 160.0 (57.0) ng/mL
  Lp-PLA2 Percent change from Baseline Median (IQR): −12.8 (18.5) %
  Lp-PLA2 Difference from placebo Estimated median: −19.0%
[2]; AMR101 2 g/d + statin
  Fasting plasma glucose Week 12 EP Median (IQR): 138.0 (44.9) mg/dL
  HOMA-IR Week 12 EP Median (IQR): 6.4 (4.5)
  HbAlc Week 12 EP Median (IQR): 6.8 (1.2) %
  Insulin Week 12 EP Median (IQR): 18.6 (11.0) μIU/mL
  Fasting plasma glucose Percent change from Baseline Median (IQR): 3.6 (2.1) %
  HOMA-IR Percent change from Baseline Median (IQR): −0.6 (0.4) %
  HbAlc Percent change from Baseline Median (IQR): 0.2 (0.04) %
  Insulin Percent change from Baseline Median (IQR): −1.2 (0.9) %
  Fasting plasma glucose Difference from placebo Estimated median: −0.6 (3.0)
  HOMA-IR Difference from placebo Estimated median: −0.1 (0.5)
  HbAlc Difference from placebo Estimated median: −0.0 (0.05)
  Insulin Difference from placebo Estimated median: −0.1 (1.3)
[2]; AMR101 4 g/d + statin
  Fasting plasma glucose Week 12 EP Median (IQR): 141.9 (51.1) mg/dL
  HOMA-IR Week 12 EP Median (IQR): 6.9 (6.7)
  HbAlc Week 12 EP Median (IQR): 6.9 (1.1) %
  Insulin Week 12 EP Median (IQR): 19.0 (16.2) μIU/mL
  Fasting plasma glucose Percent change from Baseline Median (IQR): 8.9 (2.1) %
  HOMA-IR Percent change from Baseline Median (IQR): −0.1 (0.4) %
  HbAlc Percent change from Baseline Median (IQR): 0.3 (0.04) %
  Insulin Percent change from Baseline Median (IQR): −1.1 (0.9) %
  Fasting plasma glucose Difference from placebo Estimated median: 4.7 (3.0)
  HOMA-IR Difference from placebo Estimated median: 0.3 (0.6)
  HbAlc Difference from placebo Estimated median: 0.1 (0.05)
  Insulin Difference from placebo Estimated median: 0.0 (1.3)

— patent US11285127B2, “Compositions and methods for lowering triglycerides without raising LDL-C levels in a subject on concomitant statin therapy” (Amarin Pharmaceuticals Ireland Limited, priority 2013, dated 2022)
